Results as given in the kinase profiling compilation of Christmann-Franck et al. (2016).

Experiments:
Test in all cases: KINOMEscan competition binding
CAMKK2 (human) = CAMKK2 (human) (UniProt Q96RR4); conditions: compound 1.0 µM
MAPK8 (human) = MAPK8 (human) (UniProt P45983); conditions: compound 1.0 µM
FGR (human) = FGR (human) (UniProt P09769); conditions: compound 1.0 µM
PIK3CD (human) = PIK3CD (human) (UniProt O00329); conditions: compound 1.0 µM
CDKL3 (human) = CDKL3 (human) (UniProt Q8IVW4); conditions: compound 1.0 µM
NUAK1 (human) = NUAK1 (human) (UniProt O60285); conditions: compound 1.0 µM
CRK2 (P.falciparum) = CRK2 (P.falciparum) (UniProt P61075); conditions: compound 1.0 µM
MELK (human) = MELK (human) (UniProt Q14680); conditions: compound 1.0 µM
MAPK13 (human) = MAPK13 (human) (UniProt O15264); conditions: compound 1.0 µM
INSR (human) = INSR (human) (UniProt P06213); conditions: compound 1.0 µM
MAPKAPK5 (human) = MAPKAPK5 (human) (UniProt Q8IW41); conditions: compound 1.0 µM
CDC42BPG (human) = CDC42BPG (human) (UniProt Q6DT37); conditions: for kinase still bound, per cent of control: compound 1.0 µM
ROCK1 (human) = ROCK1 (human) (UniProt Q13464); conditions: compound 1.0 µM
HUNK (human) = HUNK (human) (UniProt P57058); conditions: compound 1.0 µM
MLTK (human) = MLTK (human) (UniProt Q9NYL2); conditions: compound 1.0 µM
MYO3B (human) = MYO3B (human) (UniProt Q8WXR4); conditions: compound 1.0 µM
VRK2 (human) = VRK2 (human) (UniProt Q86Y07); conditions: compound 1.0 µM
ERN1 (human) = ERN1 (human) (UniProt O75460); conditions: compound 1.0 µM
TEC (human) = TEC (human) (UniProt P42680); conditions: compound 1.0 µM
MINK1 (human) = MINK1 (human) (UniProt Q8N4C8); conditions: compound 1.0 µM
MAP2K1 (human) = MAP2K1 (human) (UniProt Q02750); conditions: compound 1.0 µM
MARK1 (human) = MARK1 (human) (UniProt Q9P0L2); conditions: compound 1.0 µM
NLK (human) = NLK (human) (UniProt Q9UBE8); conditions: compound 1.0 µM
MAPK12 (human) = MAPK12 (human) (UniProt P53778); conditions: compound 1.0 µM
MAPK6 (human) = MAPK6 (human) (UniProt Q16659); conditions: for kinase still bound, per cent of control: compound 1.0 µM
EGFR (human) = EGFR (human) (UniProt P00533); conditions: compound 1.0 µM
RIOK3 (human) = RIOK3 (human) (UniProt O14730); conditions: compound 1.0 µM
CSF1R (human) = CSF1R (human) (UniProt P07333); conditions: compound 1.0 µM
STK25 (human) = STK25 (human) (UniProt O00506); conditions: compound 1.0 µM
PHKG1 (human) = PHKG1 (human) (UniProt Q16816); conditions: compound 1.0 µM
MAPK1 (human) = MAPK1 (human) (UniProt P28482); conditions: compound 1.0 µM
RIOK1 (human) = RIOK1 (human) (UniProt Q9BRS2); conditions: compound 1.0 µM
MYO3A (human) = MYO3A (human) (UniProt Q8NEV4); conditions: compound 1.0 µM
SBK1 (human) = SBK1 (human) (UniProt Q52WX2); conditions: compound 1.0 µM
[1] = tested on: EGFR (human), P00533 [L858R]; conditions: compound 1.0 µM
RPS6KA4 KD1 (human) = RPS6KA4 KD1 (human) (UniProt O75676); conditions: compound 1.0 µM
MAP3K9 (human) = MAP3K9 (human) (UniProt P80192); conditions: compound 1.0 µM
DCLK1 (human) = DCLK1 (human) (UniProt O15075); conditions: compound 1.0 µM
NEK5 (human) = NEK5 (human) (UniProt Q6P3R8); conditions: compound 1.0 µM
BMPR2 (human) = BMPR2 (human) (UniProt Q13873); conditions: compound 1.0 µM
[2] = tested on: FLT3 (human), P36888 [N841I]; conditions: compound 1.0 µM
BMPR1A (human) = BMPR1A (human) (UniProt P36894); conditions: compound 1.0 µM
FYN (human) = FYN (human) (UniProt P06241); conditions: compound 1.0 µM

Chain of RIOK3 (human) (O14730 whole entry, looked up): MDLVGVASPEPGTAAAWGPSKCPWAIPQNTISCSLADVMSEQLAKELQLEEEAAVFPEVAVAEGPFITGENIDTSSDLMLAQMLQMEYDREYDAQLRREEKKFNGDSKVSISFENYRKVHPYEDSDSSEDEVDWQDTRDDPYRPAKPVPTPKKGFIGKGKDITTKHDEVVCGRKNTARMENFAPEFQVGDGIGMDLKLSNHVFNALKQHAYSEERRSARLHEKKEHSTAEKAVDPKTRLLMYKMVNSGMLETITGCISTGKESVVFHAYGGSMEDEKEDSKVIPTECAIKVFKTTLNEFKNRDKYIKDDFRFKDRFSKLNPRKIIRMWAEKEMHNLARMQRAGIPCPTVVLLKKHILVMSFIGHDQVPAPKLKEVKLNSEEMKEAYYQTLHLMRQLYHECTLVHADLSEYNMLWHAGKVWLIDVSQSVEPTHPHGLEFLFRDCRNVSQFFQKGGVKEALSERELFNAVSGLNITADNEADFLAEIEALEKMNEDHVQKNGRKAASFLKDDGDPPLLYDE
Chain of MELK (human) (Q14680 whole entry, looked up): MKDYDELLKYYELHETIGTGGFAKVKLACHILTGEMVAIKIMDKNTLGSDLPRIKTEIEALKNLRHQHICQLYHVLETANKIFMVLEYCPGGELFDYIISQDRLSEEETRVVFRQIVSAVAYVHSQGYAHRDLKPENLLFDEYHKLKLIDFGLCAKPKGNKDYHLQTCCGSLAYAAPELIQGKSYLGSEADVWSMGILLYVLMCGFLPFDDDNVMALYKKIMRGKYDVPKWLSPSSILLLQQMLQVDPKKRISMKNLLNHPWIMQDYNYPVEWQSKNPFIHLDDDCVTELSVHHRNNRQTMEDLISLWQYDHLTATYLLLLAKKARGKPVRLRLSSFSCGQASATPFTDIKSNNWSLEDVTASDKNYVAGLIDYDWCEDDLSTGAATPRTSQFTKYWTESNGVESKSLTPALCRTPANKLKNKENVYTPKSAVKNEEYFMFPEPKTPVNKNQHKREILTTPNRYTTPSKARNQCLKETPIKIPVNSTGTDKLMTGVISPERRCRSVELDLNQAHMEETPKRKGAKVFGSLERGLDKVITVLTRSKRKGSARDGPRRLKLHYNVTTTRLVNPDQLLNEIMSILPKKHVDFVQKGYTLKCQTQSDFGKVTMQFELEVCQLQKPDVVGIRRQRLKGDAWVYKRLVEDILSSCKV
Chain of MAPK12 (human) (P53778 whole entry, looked up): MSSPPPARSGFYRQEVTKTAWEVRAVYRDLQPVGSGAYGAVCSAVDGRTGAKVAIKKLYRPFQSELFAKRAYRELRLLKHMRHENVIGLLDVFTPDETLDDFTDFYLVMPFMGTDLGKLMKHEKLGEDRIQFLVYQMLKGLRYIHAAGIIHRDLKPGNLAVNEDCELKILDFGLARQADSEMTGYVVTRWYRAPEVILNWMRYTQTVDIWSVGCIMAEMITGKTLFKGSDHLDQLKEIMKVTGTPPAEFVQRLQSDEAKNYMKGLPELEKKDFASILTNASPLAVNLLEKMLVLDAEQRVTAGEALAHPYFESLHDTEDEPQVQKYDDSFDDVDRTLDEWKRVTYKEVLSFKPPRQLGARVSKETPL
Chain of ROCK1 (human) (Q13464 whole entry, looked up): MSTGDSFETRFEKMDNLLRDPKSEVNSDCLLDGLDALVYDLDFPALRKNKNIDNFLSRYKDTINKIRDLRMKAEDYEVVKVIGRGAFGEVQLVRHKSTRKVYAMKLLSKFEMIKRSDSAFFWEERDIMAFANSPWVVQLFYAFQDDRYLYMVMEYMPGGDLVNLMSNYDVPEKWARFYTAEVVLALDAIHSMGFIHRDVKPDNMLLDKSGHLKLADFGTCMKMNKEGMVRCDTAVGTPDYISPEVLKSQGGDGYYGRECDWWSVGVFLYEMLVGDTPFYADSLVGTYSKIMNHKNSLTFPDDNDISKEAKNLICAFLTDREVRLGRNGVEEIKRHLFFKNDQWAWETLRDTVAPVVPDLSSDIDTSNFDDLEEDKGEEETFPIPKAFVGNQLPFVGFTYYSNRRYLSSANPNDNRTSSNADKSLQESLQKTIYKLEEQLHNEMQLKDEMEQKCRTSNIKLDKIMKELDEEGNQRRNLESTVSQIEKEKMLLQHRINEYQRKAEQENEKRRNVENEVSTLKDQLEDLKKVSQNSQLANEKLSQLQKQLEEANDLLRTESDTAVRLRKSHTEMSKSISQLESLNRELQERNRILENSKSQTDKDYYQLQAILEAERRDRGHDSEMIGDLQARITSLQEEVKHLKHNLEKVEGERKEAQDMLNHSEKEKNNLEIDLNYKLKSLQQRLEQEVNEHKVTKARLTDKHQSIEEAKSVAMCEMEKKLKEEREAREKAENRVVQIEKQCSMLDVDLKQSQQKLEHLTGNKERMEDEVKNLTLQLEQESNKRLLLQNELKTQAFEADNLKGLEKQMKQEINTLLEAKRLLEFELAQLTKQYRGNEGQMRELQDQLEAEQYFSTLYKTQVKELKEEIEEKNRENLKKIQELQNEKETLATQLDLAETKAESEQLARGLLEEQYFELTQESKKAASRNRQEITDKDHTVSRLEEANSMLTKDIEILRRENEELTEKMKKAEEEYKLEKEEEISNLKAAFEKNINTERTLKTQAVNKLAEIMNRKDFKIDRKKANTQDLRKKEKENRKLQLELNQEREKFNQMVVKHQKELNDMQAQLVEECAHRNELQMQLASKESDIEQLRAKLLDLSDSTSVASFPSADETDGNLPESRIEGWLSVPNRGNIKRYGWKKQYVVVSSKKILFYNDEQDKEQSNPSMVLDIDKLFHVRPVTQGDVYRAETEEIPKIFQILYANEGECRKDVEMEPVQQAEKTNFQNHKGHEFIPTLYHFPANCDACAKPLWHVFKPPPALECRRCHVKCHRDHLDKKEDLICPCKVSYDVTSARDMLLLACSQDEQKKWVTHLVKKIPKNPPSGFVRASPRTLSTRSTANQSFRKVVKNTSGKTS
Chain of PHKG1 (human) (Q16816 whole entry, looked up): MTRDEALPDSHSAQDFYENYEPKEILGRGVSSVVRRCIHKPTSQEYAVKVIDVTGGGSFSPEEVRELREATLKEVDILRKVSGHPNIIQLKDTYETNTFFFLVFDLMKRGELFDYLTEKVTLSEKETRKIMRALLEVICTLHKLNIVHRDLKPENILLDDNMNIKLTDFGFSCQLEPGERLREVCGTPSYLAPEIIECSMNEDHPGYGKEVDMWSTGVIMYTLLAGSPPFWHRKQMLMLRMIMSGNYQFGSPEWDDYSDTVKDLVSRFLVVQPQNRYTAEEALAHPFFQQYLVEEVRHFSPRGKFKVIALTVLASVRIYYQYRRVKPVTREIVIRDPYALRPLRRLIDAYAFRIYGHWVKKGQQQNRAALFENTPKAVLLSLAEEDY
Chain of MAPK6 (human) (Q16659 whole entry, looked up): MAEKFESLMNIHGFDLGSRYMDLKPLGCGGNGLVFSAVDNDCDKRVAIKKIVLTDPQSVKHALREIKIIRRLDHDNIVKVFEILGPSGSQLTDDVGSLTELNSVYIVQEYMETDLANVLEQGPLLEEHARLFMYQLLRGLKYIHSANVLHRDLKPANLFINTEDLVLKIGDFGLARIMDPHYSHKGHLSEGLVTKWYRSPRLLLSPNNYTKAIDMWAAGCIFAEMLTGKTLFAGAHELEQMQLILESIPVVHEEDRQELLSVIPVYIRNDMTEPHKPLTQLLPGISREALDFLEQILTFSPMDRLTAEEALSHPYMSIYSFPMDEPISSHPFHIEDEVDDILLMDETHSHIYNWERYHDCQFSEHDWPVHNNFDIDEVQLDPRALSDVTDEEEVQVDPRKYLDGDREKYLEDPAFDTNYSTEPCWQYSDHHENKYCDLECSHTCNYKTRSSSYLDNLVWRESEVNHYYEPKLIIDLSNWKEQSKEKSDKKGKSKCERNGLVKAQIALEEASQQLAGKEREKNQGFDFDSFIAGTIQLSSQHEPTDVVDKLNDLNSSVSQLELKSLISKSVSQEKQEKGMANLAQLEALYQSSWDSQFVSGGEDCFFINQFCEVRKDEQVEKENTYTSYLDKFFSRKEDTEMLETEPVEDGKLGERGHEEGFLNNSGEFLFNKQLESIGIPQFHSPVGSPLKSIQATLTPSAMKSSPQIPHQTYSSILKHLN
Chain of RPS6KA4 KD1 (human) (O75676 whole entry, looked up): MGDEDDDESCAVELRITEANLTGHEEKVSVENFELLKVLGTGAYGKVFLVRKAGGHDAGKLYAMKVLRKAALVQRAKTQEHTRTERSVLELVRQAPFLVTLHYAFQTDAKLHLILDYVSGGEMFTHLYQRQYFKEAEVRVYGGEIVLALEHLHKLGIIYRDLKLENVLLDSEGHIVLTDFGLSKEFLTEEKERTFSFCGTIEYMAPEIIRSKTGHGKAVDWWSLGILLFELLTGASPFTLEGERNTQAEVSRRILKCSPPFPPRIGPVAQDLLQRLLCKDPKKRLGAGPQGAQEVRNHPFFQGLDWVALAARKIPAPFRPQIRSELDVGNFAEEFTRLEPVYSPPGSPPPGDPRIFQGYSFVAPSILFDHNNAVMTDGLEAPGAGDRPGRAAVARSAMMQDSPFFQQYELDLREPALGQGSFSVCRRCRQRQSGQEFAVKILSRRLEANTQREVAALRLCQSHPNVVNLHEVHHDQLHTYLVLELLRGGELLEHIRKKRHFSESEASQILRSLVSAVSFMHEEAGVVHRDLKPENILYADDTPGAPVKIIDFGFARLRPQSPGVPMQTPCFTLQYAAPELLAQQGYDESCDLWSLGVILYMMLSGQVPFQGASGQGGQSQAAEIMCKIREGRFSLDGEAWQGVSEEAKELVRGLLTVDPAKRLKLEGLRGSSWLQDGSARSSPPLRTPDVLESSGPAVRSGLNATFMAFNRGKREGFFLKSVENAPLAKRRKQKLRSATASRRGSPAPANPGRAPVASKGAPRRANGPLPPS

`CN(C)C/C=C/C(=O)Nc1cccc(C(=O)Nc2ccc(Nc3nccc(-c4cccnc4)n3)cc2)c1` showed a kinase still bound, per cent of control (CAMKK2 (human)) of 40%, a kinase still bound, per cent of control (MAPK8 (human)) of 0% and a kinase still bound, per cent of control (FGR (human)) of 69%. For the same molecule, the kinase still bound, per cent of control (PIK3CD (human)) was 100%, the kinase still bound, per cent of control (CDKL3 (human)) was 41% and the kinase still bound, per cent of control (NUAK1 (human)) was 37%. The kinase still bound, per cent of control (CRK2 (P.falciparum)) was 100%, the kinase still bound, per cent of control (MELK (human)) was 30% and the kinase still bound, per cent of control (MAPK13 (human)) was 100%. It also gave a kinase still bound, per cent of control (INSR (human)) of 100%, a kinase still bound, per cent of control (MAPKAPK5 (human)) of 68% and a kinase still bound, per cent of control (CDC42BPG (human)) of 73%. The kinase still bound, per cent of control (ROCK1 (human)) was 22%, the kinase still bound, per cent of control (HUNK (human)) was 65% and the kinase still bound, per cent of control (MLTK (human)) was 46%. For the same molecule, the kinase still bound, per cent of control (MYO3B (human)) was 100%, the kinase still bound, per cent of control (VRK2 (human)) was 98% and the kinase still bound, per cent of control (ERN1 (human)) was 78%. For the same molecule, the kinase still bound, per cent of control (TEC (human)) was 100%, the kinase still bound, per cent of control (MINK1 (human)) was 37% and the kinase still bound, per cent of control (MAP2K1 (human)) was 46%. The kinase still bound, per cent of control (MARK1 (human)) was 68%, the kinase still bound, per cent of control (NLK (human)) was 81% and the kinase still bound, per cent of control (MAPK12 (human)) was 78%. It also gave a Kd (MAPK6 (human)) of 22 nM, a kinase still bound, per cent of control (MAPK6 (human)) of 0.4% and a kinase still bound, per cent of control (EGFR (human)) of 95%. It also gave a kinase still bound, per cent of control (RIOK3 (human)) of 8.3%, a kinase still bound, per cent of control (CSF1R (human)) of 52% and a kinase still bound, per cent of control (STK25 (human)) of 58%. For the same molecule, the kinase still bound, per cent of control (PHKG1 (human)) was 91%, the kinase still bound, per cent of control (MAPK1 (human)) was 100% and the kinase still bound, per cent of control (RIOK1 (human)) was 15%. For the same molecule, the kinase still bound, per cent of control (MYO3A (human)) was 81%, the kinase still bound, per cent of control (SBK1 (human)) was 66% and the kinase still bound, per cent of control [1] was 91%. It also gave a kinase still bound, per cent of control (RPS6KA4 KD1 (human)) of 82%, a kinase still bound, per cent of control (MAP3K9 (human)) of 80% and a kinase still bound, per cent of control (DCLK1 (human)) of 96%. For the same molecule, the kinase still bound, per cent of control (NEK5 (human)) was 7.8%, the kinase still bound, per cent of control (BMPR2 (human)) was 64% and the kinase still bound, per cent of control [2] was 18%. It also gave a kinase still bound, per cent of control (BMPR1A (human)) of 46% and a kinase still bound, per cent of control (FYN (human)) of 90%.

Work on `CN(C)C/C=C/C(=O)Nc1cccc(C(=O)Nc2ccc(Nc3nccc(-c4c(-c5ccccc5)nn5ccccc45)n3)cc2)c1` yielded a kinase still bound, per cent of control (CAMKK2 (human)) of 100%, a kinase still bound, per cent of control (MAPK8 (human)) of 0% and a kinase still bound, per cent of control (FGR (human)) of 10%. The kinase still bound, per cent of control (PIK3CD (human)) was 95%, the kinase still bound, per cent of control (CDKL3 (human)) was 100% and the kinase still bound, per cent of control (NUAK1 (human)) was 83%. The kinase still bound, per cent of control (CRK2 (P.falciparum)) was 100%, the kinase still bound, per cent of control (MELK (human)) was 100% and the kinase still bound, per cent of control (MAPK13 (human)) was 100%. For the same molecule, the kinase still bound, per cent of control (INSR (human)) was 100%, the kinase still bound, per cent of control (MAPKAPK5 (human)) was 100% and the Kd (CDC42BPG (human)) was 18 nM. The kinase still bound, per cent of control (CDC42BPG (human)) was 0.25%, the kinase still bound, per cent of control (ROCK1 (human)) was 59% and the kinase still bound, per cent of control (HUNK (human)) was 67%. It also gave a kinase still bound, per cent of control (MLTK (human)) of 11%, a kinase still bound, per cent of control (MYO3B (human)) of 97% and a kinase still bound, per cent of control (VRK2 (human)) of 85%. It also gave a kinase still bound, per cent of control (ERN1 (human)) of 100%, a kinase still bound, per cent of control (TEC (human)) of 100% and a kinase still bound, per cent of control (MINK1 (human)) of 46%. For the same molecule, the kinase still bound, per cent of control (MAP2K1 (human)) was 100%, the kinase still bound, per cent of control (MARK1 (human)) was 100% and the kinase still bound, per cent of control (NLK (human)) was 12%. The kinase still bound, per cent of control (MAPK12 (human)) was 94%, the kinase still bound, per cent of control (MAPK6 (human)) was 71% and the kinase still bound, per cent of control (EGFR (human)) was 1.8%. It also gave a kinase still bound, per cent of control (RIOK3 (human)) of 97%, a kinase still bound, per cent of control (CSF1R (human)) of 6% and a kinase still bound, per cent of control (STK25 (human)) of 100%. For the same molecule, the kinase still bound, per cent of control (PHKG1 (human)) was 100%, the kinase still bound, per cent of control (MAPK1 (human)) was 100% and the kinase still bound, per cent of control (RIOK1 (human)) was 100%. For the same molecule, the kinase still bound, per cent of control (MYO3A (human)) was 100%, the kinase still bound, per cent of control (SBK1 (human)) was 92% and the kinase still bound, per cent of control [1] was 0.8%. It also gave a kinase still bound, per cent of control (RPS6KA4 KD1 (human)) of 88%, a kinase still bound, per cent of control (MAP3K9 (human)) of 59% and a kinase still bound, per cent of control (DCLK1 (human)) of 93%. It also gave a kinase still bound, per cent of control (NEK5 (human)) of 98%, a kinase still bound, per cent of control (BMPR2 (human)) of 100% and a kinase still bound, per cent of control [2] of 4%. It also gave a kinase still bound, per cent of control (BMPR1A (human)) of 66% and a kinase still bound, per cent of control (FYN (human)) of 49%.

Work on `CN(C)C/C=C/C(=O)Nc1cccc(C(=O)Nc2ccc(Nc3nccc(/C(C#N)=C4\Nc5ccccc5S4)n3)cc2)c1` yielded a kinase still bound, per cent of control (CAMKK2 (human)) of 100%, a kinase still bound, per cent of control (MAPK8 (human)) of 0% and a kinase still bound, per cent of control (FGR (human)) of 100%. The kinase still bound, per cent of control (PIK3CD (human)) was 100%, the kinase still bound, per cent of control (CDKL3 (human)) was 100% and the kinase still bound, per cent of control (NUAK1 (human)) was 100%. It also gave a kinase still bound, per cent of control (CRK2 (P.falciparum)) of 100%, a kinase still bound, per cent of control (MELK (human)) of 100% and a kinase still bound, per cent of control (MAPK13 (human)) of 86%. It also gave a kinase still bound, per cent of control (INSR (human)) of 100%, a kinase still bound, per cent of control (MAPKAPK5 (human)) of 100% and a kinase still bound, per cent of control (CDC42BPG (human)) of 88%. The kinase still bound, per cent of control (ROCK1 (human)) was 100%, the kinase still bound, per cent of control (HUNK (human)) was 99% and the kinase still bound, per cent of control (MLTK (human)) was 98%. It also gave a kinase still bound, per cent of control (MYO3B (human)) of 100%, a kinase still bound, per cent of control (VRK2 (human)) of 100% and a kinase still bound, per cent of control (ERN1 (human)) of 100%. The kinase still bound, per cent of control (TEC (human)) was 100%, the kinase still bound, per cent of control (MINK1 (human)) was 100% and the kinase still bound, per cent of control (MAP2K1 (human)) was 100%. The kinase still bound, per cent of control (MARK1 (human)) was 100%, the kinase still bound, per cent of control (NLK (human)) was 100% and the kinase still bound, per cent of control (MAPK12 (human)) was 100%. The kinase still bound, per cent of control (MAPK6 (human)) was 27%, the kinase still bound, per cent of control (EGFR (human)) was 81% and the kinase still bound, per cent of control (RIOK3 (human)) was 100%. The kinase still bound, per cent of control (CSF1R (human)) was 82%, the kinase still bound, per cent of control (STK25 (human)) was 100% and the kinase still bound, per cent of control (PHKG1 (human)) was 94%. The kinase still bound, per cent of control (MAPK1 (human)) was 100%, the kinase still bound, per cent of control (RIOK1 (human)) was 14% and the kinase still bound, per cent of control (MYO3A (human)) was 100%. It also gave a kinase still bound, per cent of control (SBK1 (human)) of 100%, a kinase still bound, per cent of control [1] of 96% and a kinase still bound, per cent of control (RPS6KA4 KD1 (human)) of 89%. The kinase still bound, per cent of control (MAP3K9 (human)) was 100%, the kinase still bound, per cent of control (DCLK1 (human)) was 100% and the kinase still bound, per cent of control (NEK5 (human)) was 100%. For the same molecule, the kinase still bound, per cent of control (BMPR2 (human)) was 50%, the kinase still bound, per cent of control [2] was 51% and the kinase still bound, per cent of control (BMPR1A (human)) was 100%. For the same molecule, the kinase still bound, per cent of control (FYN (human)) was 95%.
